From the supplement of paper PMC8671470

System: ML-2
Assay: cell viability (% survival relative to DMSO control, bortezomib = 0%); higher = less cytotoxic
Settings: 100 nM; 72 h
How it was run: (§1)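 Fifteen myeloid leukaemia cell lines were exposed to compounds at 1, 10, 100, 1000 or 10000 nM in 384-well plates for 72 h at 37 °C and 5% CO2. Viability was read by CellTiter-Glo luminescence and normalised, with vehicle as 100% and a 10 µM positive control as 0%. Values are percent survival averaged over duplicates.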

Row | SMILES | cell viability [%]
1 | Cc1c2c(=O)n(-c3ccccc3Cl)[nH]c2cc(=O)n1Cc1ccccn1 | 95.4
2 | COc1ccc2c(NC(=O)Nc3cccc(C(F)(F)F)n3)ccnc2c1 | 109
3 | O=c1cc(N2CCOCC2)oc2c(-c3ccccc3)cccc12 | 17.6
4 | O=C1C(SCCO)=C(SCCO)C(=O)c2ccccc21 | 95.8
5 | Cc1nc(-c2ccccc2)sc1C(=O)Nc1ccc(S(N)(=O)=O)cc1 | 99.8
6 | Cn1cc(-c2ccncc2)c(-c2ccc(OCc3ccc4ccccc4n3)cc2)n1 | 98.3
7 | O=C(O)CC[N+](=O)[O-] [3-nitropropionic acid] | 107
8 | C=CC(=O)c1ccc(O)cc1 [4-Acryloylphenol] | 105
9 | Cc1[nH]nc(C(F)(F)F)c1Cc1sc2c(c1C(=O)N1C[C@](C)(O)CO1)c(=O)n(C)c(=O)n2C(C)C [AZD3965] | 114
10 | O=c1cc(-c2ccccc2)oc2c1ccc1ccccc12 [Alpha-Naphtoflavone] | 93.4

Same assay, conditions: 1000 nM; 72 h

Row | SMILES | cell viability [%]
11 | CN(CCCOc1ccc(Cc2ccccc2)cc1)CCC(=O)O | 113
12 | Cc1c2c(=O)n(-c3ccccc3Cl)[nH]c2cc(=O)n1Cc1ccccn1 | 98.6
13 | COc1ccc2c(NC(=O)Nc3cccc(C(F)(F)F)n3)ccnc2c1 | 122
14 | O=c1cc(N2CCOCC2)oc2c(-c3ccccc3)cccc12 | 89.4
15 | O=C1C(SCCO)=C(SCCO)C(=O)c2ccccc21 | 2.66
16 | Cc1nc(-c2ccccc2)sc1C(=O)Nc1ccc(S(N)(=O)=O)cc1 | 107
17 | Cn1cc(-c2ccncc2)c(-c2ccc(OCc3ccc4ccccc4n3)cc2)n1 | 103
18 | O=C(O)CC[N+](=O)[O-] [3-nitropropionic acid] | 102
19 | C=CC(=O)c1ccc(O)cc1 [4-Acryloylphenol] | 125
20 | Cc1[nH]nc(C(F)(F)F)c1Cc1sc2c(c1C(=O)N1C[C@](C)(O)CO1)c(=O)n(C)c(=O)n2C(C)C [AZD3965] | 108
21 | O=c1cc(-c2ccccc2)oc2c1ccc1ccccc12 [Alpha-Naphtoflavone] | 83.4

Same assay, conditions: 10000 nM; 72 h

Row | SMILES | cell viability [%]
22 | CN(CCCOc1ccc(Cc2ccccc2)cc1)CCC(=O)O | 107
23 | Cc1c2c(=O)n(-c3ccccc3Cl)[nH]c2cc(=O)n1Cc1ccccn1 | 101
24 | COc1ccc2c(NC(=O)Nc3cccc(C(F)(F)F)n3)ccnc2c1 | 127
25 | O=c1cc(N2CCOCC2)oc2c(-c3ccccc3)cccc12 | 54.9
26 | O=C1C(SCCO)=C(SCCO)C(=O)c2ccccc21 | -0.682
27 | Cc1nc(-c2ccccc2)sc1C(=O)Nc1ccc(S(N)(=O)=O)cc1 | 100
28 | Cn1cc(-c2ccncc2)c(-c2ccc(OCc3ccc4ccccc4n3)cc2)n1 | 69.3
29 | O=C(O)CC[N+](=O)[O-] [3-nitropropionic acid] | 87
30 | C=CC(=O)c1ccc(O)cc1 [4-Acryloylphenol] | 46.9
31 | Cc1[nH]nc(C(F)(F)F)c1Cc1sc2c(c1C(=O)N1C[C@](C)(O)CO1)c(=O)n(C)c(=O)n2C(C)C [AZD3965] | 101
32 | O=c1cc(-c2ccccc2)oc2c1ccc1ccccc12 [Alpha-Naphtoflavone] | 82.3

System: MOLM-13
Assay: as above
Settings: 1 nM; 72 h
How it was run: as §1

Row | SMILES | cell viability [%]
33 | CN(CCCOc1ccc(Cc2ccccc2)cc1)CCC(=O)O | 119
34 | Cc1c2c(=O)n(-c3ccccc3Cl)[nH]c2cc(=O)n1Cc1ccccn1 | 84.7
35 | COc1ccc2c(NC(=O)Nc3cccc(C(F)(F)F)n3)ccnc2c1 | 105
36 | O=c1cc(N2CCOCC2)oc2c(-c3ccccc3)cccc12 | 125
37 | O=C1C(SCCO)=C(SCCO)C(=O)c2ccccc21 | 104
38 | Cc1nc(-c2ccccc2)sc1C(=O)Nc1ccc(S(N)(=O)=O)cc1 | 102
39 | Cn1cc(-c2ccncc2)c(-c2ccc(OCc3ccc4ccccc4n3)cc2)n1 | 123
40 | O=C(O)CC[N+](=O)[O-] [3-nitropropionic acid] | 68.7
41 | C=CC(=O)c1ccc(O)cc1 [4-Acryloylphenol] | 81.7
42 | Cc1[nH]nc(C(F)(F)F)c1Cc1sc2c(c1C(=O)N1C[C@](C)(O)CO1)c(=O)n(C)c(=O)n2C(C)C [AZD3965] | 113
43 | O=c1cc(-c2ccccc2)oc2c1ccc1ccccc12 [Alpha-Naphtoflavone] | 115

Same assay, conditions: 10 nM; 72 h

Row | SMILES | cell viability [%]
44 | CN(CCCOc1ccc(Cc2ccccc2)cc1)CCC(=O)O | 122
45 | Cc1c2c(=O)n(-c3ccccc3Cl)[nH]c2cc(=O)n1Cc1ccccn1 | 101
46 | COc1ccc2c(NC(=O)Nc3cccc(C(F)(F)F)n3)ccnc2c1 | 115
47 | O=c1cc(N2CCOCC2)oc2c(-c3ccccc3)cccc12 | 119
48 | O=C1C(SCCO)=C(SCCO)C(=O)c2ccccc21 | 101
49 | Cc1nc(-c2ccccc2)sc1C(=O)Nc1ccc(S(N)(=O)=O)cc1 | 112
50 | Cn1cc(-c2ccncc2)c(-c2ccc(OCc3ccc4ccccc4n3)cc2)n1 | 99.5
51 | O=C(O)CC[N+](=O)[O-] [3-nitropropionic acid] | 122
52 | C=CC(=O)c1ccc(O)cc1 [4-Acryloylphenol] | 79.4
53 | Cc1[nH]nc(C(F)(F)F)c1Cc1sc2c(c1C(=O)N1C[C@](C)(O)CO1)c(=O)n(C)c(=O)n2C(C)C [AZD3965] | 120
54 | O=c1cc(-c2ccccc2)oc2c1ccc1ccccc12 [Alpha-Naphtoflavone] | 93.5

Same assay, conditions: 100 nM; 72 h

Row | SMILES | cell viability [%]
55 | CN(CCCOc1ccc(Cc2ccccc2)cc1)CCC(=O)O | 91.9
56 | Cc1c2c(=O)n(-c3ccccc3Cl)[nH]c2cc(=O)n1Cc1ccccn1 | 96.7
57 | COc1ccc2c(NC(=O)Nc3cccc(C(F)(F)F)n3)ccnc2c1 | 113
58 | O=c1cc(N2CCOCC2)oc2c(-c3ccccc3)cccc12 | 77.5
59 | O=C1C(SCCO)=C(SCCO)C(=O)c2ccccc21 | 107
60 | Cc1nc(-c2ccccc2)sc1C(=O)Nc1ccc(S(N)(=O)=O)cc1 | 127
61 | Cn1cc(-c2ccncc2)c(-c2ccc(OCc3ccc4ccccc4n3)cc2)n1 | 95.9
62 | O=C(O)CC[N+](=O)[O-] [3-nitropropionic acid] | 110
63 | C=CC(=O)c1ccc(O)cc1 [4-Acryloylphenol] | 83.1
64 | Cc1[nH]nc(C(F)(F)F)c1Cc1sc2c(c1C(=O)N1C[C@](C)(O)CO1)c(=O)n(C)c(=O)n2C(C)C [AZD3965] | 120
65 | O=c1cc(-c2ccccc2)oc2c1ccc1ccccc12 [Alpha-Naphtoflavone] | 96.2

Same assay, conditions: 1000 nM; 72 h

Row | SMILES | cell viability [%]
66 | CN(CCCOc1ccc(Cc2ccccc2)cc1)CCC(=O)O | 133
67 | Cc1c2c(=O)n(-c3ccccc3Cl)[nH]c2cc(=O)n1Cc1ccccn1 | 71.4
68 | COc1ccc2c(NC(=O)Nc3cccc(C(F)(F)F)n3)ccnc2c1 | 108
69 | O=c1cc(N2CCOCC2)oc2c(-c3ccccc3)cccc12 | 1.16
70 | O=C1C(SCCO)=C(SCCO)C(=O)c2ccccc21 | 5.3
71 | Cc1nc(-c2ccccc2)sc1C(=O)Nc1ccc(S(N)(=O)=O)cc1 | 106
72 | Cn1cc(-c2ccncc2)c(-c2ccc(OCc3ccc4ccccc4n3)cc2)n1 | 69.4
73 | O=C(O)CC[N+](=O)[O-] [3-nitropropionic acid] | 94
74 | C=CC(=O)c1ccc(O)cc1 [4-Acryloylphenol] | 124
75 | Cc1[nH]nc(C(F)(F)F)c1Cc1sc2c(c1C(=O)N1C[C@](C)(O)CO1)c(=O)n(C)c(=O)n2C(C)C [AZD3965] | 105
76 | O=c1cc(-c2ccccc2)oc2c1ccc1ccccc12 [Alpha-Naphtoflavone] | 80.9

Same assay, conditions: 10000 nM; 72 h

Row | SMILES | cell viability [%]
77 | CN(CCCOc1ccc(Cc2ccccc2)cc1)CCC(=O)O | 79.1
78 | Cc1c2c(=O)n(-c3ccccc3Cl)[nH]c2cc(=O)n1Cc1ccccn1 | 38.5
79 | COc1ccc2c(NC(=O)Nc3cccc(C(F)(F)F)n3)ccnc2c1 | 44.5
80 | O=c1cc(N2CCOCC2)oc2c(-c3ccccc3)cccc12 | 0.26
81 | O=C1C(SCCO)=C(SCCO)C(=O)c2ccccc21 | -0.664
82 | Cc1nc(-c2ccccc2)sc1C(=O)Nc1ccc(S(N)(=O)=O)cc1 | 99.7
83 | Cn1cc(-c2ccncc2)c(-c2ccc(OCc3ccc4ccccc4n3)cc2)n1 | 6.76
84 | O=C(O)CC[N+](=O)[O-] [3-nitropropionic acid] | 0.718
85 | C=CC(=O)c1ccc(O)cc1 [4-Acryloylphenol] | 78.7
86 | Cc1[nH]nc(C(F)(F)F)c1Cc1sc2c(c1C(=O)N1C[C@](C)(O)CO1)c(=O)n(C)c(=O)n2C(C)C [AZD3965] | 93.5
87 | O=c1cc(-c2ccccc2)oc2c1ccc1ccccc12 [Alpha-Naphtoflavone] | 90.1

System: Mono-Mac-6
Assay: as above
Settings: 1 nM; 72 h
How it was run: as §1

Row | SMILES | cell viability [%]
88 | CN(CCCOc1ccc(Cc2ccccc2)cc1)CCC(=O)O | 106
89 | Cc1c2c(=O)n(-c3ccccc3Cl)[nH]c2cc(=O)n1Cc1ccccn1 | 89
90 | COc1ccc2c(NC(=O)Nc3cccc(C(F)(F)F)n3)ccnc2c1 | 108
91 | O=c1cc(N2CCOCC2)oc2c(-c3ccccc3)cccc12 | 116
92 | O=C1C(SCCO)=C(SCCO)C(=O)c2ccccc21 | 111
93 | Cc1nc(-c2ccccc2)sc1C(=O)Nc1ccc(S(N)(=O)=O)cc1 | 121
94 | Cn1cc(-c2ccncc2)c(-c2ccc(OCc3ccc4ccccc4n3)cc2)n1 | 92.7
95 | O=C(O)CC[N+](=O)[O-] [3-nitropropionic acid] | 102
96 | C=CC(=O)c1ccc(O)cc1 [4-Acryloylphenol] | 86.3
97 | Cc1[nH]nc(C(F)(F)F)c1Cc1sc2c(c1C(=O)N1C[C@](C)(O)CO1)c(=O)n(C)c(=O)n2C(C)C [AZD3965] | 108
98 | O=c1cc(-c2ccccc2)oc2c1ccc1ccccc12 [Alpha-Naphtoflavone] | 92.7

Same assay, conditions: 10 nM; 72 h

Row | SMILES | cell viability [%]
99 | CN(CCCOc1ccc(Cc2ccccc2)cc1)CCC(=O)O | 90.1
100 | Cc1c2c(=O)n(-c3ccccc3Cl)[nH]c2cc(=O)n1Cc1ccccn1 | 109
101 | COc1ccc2c(NC(=O)Nc3cccc(C(F)(F)F)n3)ccnc2c1 | 92.3
102 | O=c1cc(N2CCOCC2)oc2c(-c3ccccc3)cccc12 | 103
103 | O=C1C(SCCO)=C(SCCO)C(=O)c2ccccc21 | 102
104 | Cc1nc(-c2ccccc2)sc1C(=O)Nc1ccc(S(N)(=O)=O)cc1 | 102
105 | Cn1cc(-c2ccncc2)c(-c2ccc(OCc3ccc4ccccc4n3)cc2)n1 | 87.4
106 | O=C(O)CC[N+](=O)[O-] [3-nitropropionic acid] | 93.6
107 | C=CC(=O)c1ccc(O)cc1 [4-Acryloylphenol] | 99.1
108 | Cc1[nH]nc(C(F)(F)F)c1Cc1sc2c(c1C(=O)N1C[C@](C)(O)CO1)c(=O)n(C)c(=O)n2C(C)C [AZD3965] | 105
109 | O=c1cc(-c2ccccc2)oc2c1ccc1ccccc12 [Alpha-Naphtoflavone] | 90.3

Same assay, conditions: 100 nM; 72 h

Row | SMILES | cell viability [%]
110 | CN(CCCOc1ccc(Cc2ccccc2)cc1)CCC(=O)O | 101
111 | Cc1c2c(=O)n(-c3ccccc3Cl)[nH]c2cc(=O)n1Cc1ccccn1 | 96
112 | COc1ccc2c(NC(=O)Nc3cccc(C(F)(F)F)n3)ccnc2c1 | 95.7
113 | O=c1cc(N2CCOCC2)oc2c(-c3ccccc3)cccc12 | 95.3
114 | O=C1C(SCCO)=C(SCCO)C(=O)c2ccccc21 | 104
115 | Cc1nc(-c2ccccc2)sc1C(=O)Nc1ccc(S(N)(=O)=O)cc1 | 98.7
116 | Cn1cc(-c2ccncc2)c(-c2ccc(OCc3ccc4ccccc4n3)cc2)n1 | 89.5
117 | O=C(O)CC[N+](=O)[O-] [3-nitropropionic acid] | 101
118 | C=CC(=O)c1ccc(O)cc1 [4-Acryloylphenol] | 111
119 | Cc1[nH]nc(C(F)(F)F)c1Cc1sc2c(c1C(=O)N1C[C@](C)(O)CO1)c(=O)n(C)c(=O)n2C(C)C [AZD3965] | 111
120 | O=c1cc(-c2ccccc2)oc2c1ccc1ccccc12 [Alpha-Naphtoflavone] | 93.6

Same assay, conditions: 1000 nM; 72 h

Row | SMILES | cell viability [%]
121 | CN(CCCOc1ccc(Cc2ccccc2)cc1)CCC(=O)O | 107
122 | Cc1c2c(=O)n(-c3ccccc3Cl)[nH]c2cc(=O)n1Cc1ccccn1 | 103
123 | COc1ccc2c(NC(=O)Nc3cccc(C(F)(F)F)n3)ccnc2c1 | 94.9
124 | O=c1cc(N2CCOCC2)oc2c(-c3ccccc3)cccc12 | 83.2
125 | O=C1C(SCCO)=C(SCCO)C(=O)c2ccccc21 | 30
126 | Cc1nc(-c2ccccc2)sc1C(=O)Nc1ccc(S(N)(=O)=O)cc1 | 97.3
